From patent US20050004200A1, “Pyrazole compounds as integrin receptor antagonists derivatives” (Pharmacia Corporation, priority 2002, published 2005)
Where two headings read alike, the source gives them in different places.

What was measured:
[1] = plasma level upon oral dosing (AUC-PO); conditions: plasma AUC normalised to dose
[2] = in vivo

| Rat AUC-PO/dose [1] | Rat AUC-PO/dose [2] | Compound |
| --- | --- | --- |
| 1.1 µg·h/mL/mg/kg |  | Cl.Cn1nc(CC(CC(=O)O)c2cnc(C3CC3)s2)cc1OCCc1ccc2c(n1)NCCC2 (centres unmarked) [Example 6, 3-(2-cyclopropyl-1,3-thiazol-5-yl)-4-{1-methyl-5-[2-(5,6,7,8-tetrahydro-1,8-naphthyridin-2-yl)ethoxy]-1H-pyrazol-3-yl}butanoic acid] |
| 1.7 µg·h/mL/mg/kg |  | O=C(O)CC(Cc1cc(OCCc2ccc3c(n2)NCCC3)n(-c2ccccc2)n1)c1ccc2c(c1)OCO2 (centres unmarked) [Example 21, 3-(1,3-benzodioxol-5-yl)-4-{1-phenyl-5-[2-(5,6,7,8-tetrahydro-1,8-naphthyridin-2-yl)ethoxy]-1H-pyrazol-3-yl}butanoic acid] |
| 1 µg·h/mL/mg/kg |  | Cn1nc(CC(CC(=O)O)c2cnc(-c3ccc(Cl)cc3)s2)cc1OCCc1ccc2c(n1)NCCC2 (centres unmarked) [Example 2, 3-[2-(4-chlorophenyl)-1,3-thiazol-5-yl]-4-{1-methyl-5-[2-(5,6,7,8-tetrahydro-1,8-naphthyridin-2-yl)ethoxy]-1H-pyrazol-3-yl}butanoic acid] |
| 2.2 µg·h/mL/mg/kg |  | Cc1cc(CCOc2cc(CC(CC(=O)O)c3ccc4c(c3)OCO4)nn2C)nc2c1CCCN2 (centres unmarked) [Example 32, 3-(1,3-Benzodioxol-5-yl)-4-{1-methyl-5-[2-(4-methyl-5,6,7,8-tetrahydro-1,8-naphthyridin-2-yl)ethoxy]-1H-pyrazol-3-yl}butanoic acid] |

Continued, compound first:

| Compound | Rat AUC-PO/dose [1] | Rat AUC-PO/dose [2] |
| --- | --- | --- |
| CN1CCNc2nc(CCOc3cc(CC(CC(=O)O)c4ccc5c(c4)OCO5)nn3C)ccc21 (centres unmarked) [Example 31, 3-(1,3-benzodioxol-5-yl)-4-{1-methyl-5-[2-(1-methyl-1,2,3,4-tetrahydropyrido[2,3-b]pyrazin-6-yl)ethoxy]-1H-pyrazol-3-yl}butanoic acid] | 1.9 µg·h/mL/mg/kg |  |
| CNc1cccc(CCOc2cc(CC(CC(=O)O)c3ccc4c(c3)OCO4)nn2C)n1 (centres unmarked) [Example 8, 3-(1,3-benzodioxol-5-yl)-4-(1-methyl-5-{2-[6-(methylamino)pyridin-2-yl]ethoxy}-1H-pyrazol-3-yl)butanoic acid] | 0.7 µg·h/mL/mg/kg |  |
| Cn1nc(CC(CC(=O)O)c2ccc3c(c2)OCO3)cc1OCCc1ccc2c(n1)NCCC2 (centres unmarked) [Example 1, 3-(1,3-benzodioxol-5-yl)-4-{1-methyl-5-[2-(5,6,7,8-tetrahydro-1,8-naphthyridin-2-yl)ethoxy]-1H-pyrazol-3-yl}butanoic acid] | 0.9 µg·h/mL/mg/kg |  |
| COc1ccc(C(CC(=O)O)Cc2cc(OCCc3ccc4c(n3)NCCN4C)n(C)n2)cn1 (centres unmarked) [Example 7, 3-(6-methoxypyridin-3-yl)-4-{1-methyl-5-[2-(1-methyl-1,2,3,4-tetrahydropyrido[2,3-b]pyrazin-6-yl)ethoxy]-1H-pyrazol-3-yl}butanoic acid] | 0.8 µg·h/mL/mg/kg |  |
| Cn1nc(CC(CC(=O)O)c2ccc3c(c2)OCO3)cc1OCCc1ccc2c(n1)NCCN2 (centres unmarked) [Example 25, 3-(1,3-benzodioxol-5-yl)-4-{1-methyl-5-[2-(1,2,3,4-tetrahydropyrido[2,3-b]pyrazin-6-yl)ethoxy]-1H-pyrazol-3-yl}butanoic acid] | 0.4 µg·h/mL/mg/kg |  |
| Cn1nc(CC(CC(=O)O)c2ccc3c(c2)OCO3)cc1SCCc1ccc2c(n1)NCCC2 (centres unmarked) [Example 3, 3-(1,3-benzodioxol-5-yl)-4-(1-methyl-5-{[2-(5,6,7,8-tetrahydro-1,8-naphthyridin-2-yl)ethyl]thio}-1H-pyrazol-3-yl)butanoic acid] | 2.2 µg·h/mL/mg/kg |  |
| O=C(O)CC(Cc1cc(OCCc2ccc3c(n2)NCCN3)n(CC(F)(F)F)n1)c1ccc2c(c1)OCO2 (centres unmarked) [Example 26, 3-(1,3-benzodioxol-5-yl)-4-[5-[2-(1,2,3,4-tetrahydropyrido[2,3-b]pyrazin-6-yl)ethoxy]-1-(2,2,2-trifluoroethyl)-1H-pyrazol-3-yl]butanoic acid] | 0.9 µg·h/mL/mg/kg |  |
| Cn1nc(CC(CC(=O)O)c2ccc3c(c2)OCO3)cc1S(=O)(=O)CCc1ccc2c(n1)NCCC2 (centres unmarked) [Example 4, 3-(1,3-benzodioxol-5-yl)-4-(1-methyl-5-{[2-(5,6,7,8-tetrahydro-1,8-naphthyridin-2-yl)ethyl]sulfonyl}-1H-pyrazol-3-yl)butanoic acid] | 0.7 µg·h/mL/mg/kg |  |
| 3-(1,3-benzodioxol-5-yl)-4-[5-[2-(1-methyl-1,2,3,4-tetrahydropyrido[2,3-b]pyrazin-6-yl)ethoxy]-1-(2,2,2-trifluoroethyl)-1H-pyrazol-3-yl]butanoic acid [Example 27] |  | 2 µg·h/mL/mg/kg |
| COc1ccc(C(CC(=O)O)Cc2cc(OCCc3ccc4c(n3)NCCC4)n(CC(F)(F)F)n2)cn1 (centres unmarked) [Example 23, 3-(6-methoxypyridin-3-yl)-4-[5-[2-(5,6,7,8-tetrahydro-1,8-naphthyridin-2-yl)ethoxy]-1-(2,2,2-trifluoroethyl)-1H-pyrazol-3-yl]butanoic acid] | 0.8 µg·h/mL/mg/kg |  |
